Assay results reported in paper PMC7423395, “Male-predominant galanin mediates androgen-dependent aggressive chases in medaka” (eLife, 2020).

Experiments:
Format in all cases: in vivo, medaka (Oryzias latipes)
[1] = test system: gal-expressing neurons in brain nuclei; experiment: Number of gal-expressing neurons by in situ hybridization in gonadectomized, sex steroid-treated fish; settings: 100 ng/ml by immersion for 6 days, n = 5 per group; for ovariectomy-induced increase in the number of gal-expressing neurons in pPMp, effect of steroid treatment: ovariectomized adult females
Source text: (§1) For both male and female fish, the gonad was removed under tricaine methane sulfonate anesthesia (0.02%) (Sigma-Aldrich, St. Louis, MO) through a small incision made in the ventrolateral abdominal wall. Immediately after removal of the gonad, the incision was sutured with nylon thread. Sham-operated fish received the same surgical treatment as gonadectomized fish, except for removal of the gonad. After a recovery period of 3 days in saline (0.9% (w/v) NaCl), gonadectomized fish were immersed in water containing 100 ng/ml of KT (Cosmo Bio, Tokyo, Japan) or E2 (Fujifilm Wako Pure Chemical Corporation), or vehicle (ethanol) alone for 6 days and then sampled. Sham-operated fish were treated with vehicle alone and used as controls. In another experiment, females of gal knockout lines with intact ovaries were treated with 100 ng/ml of KT by immersion in water for 10 days and then sampled. The sex steroid concentration used was based on previously reported serum steroid levels in medaka ([Foran et al., 2002]; [Foran et al., 2004]; [Tilton et al., 2003]).
The procedure for single-label in situ hybridization has been described previously ([Hiraki et al., 2012]). In brief, whole brains were fixed in 4% paraformaldehyde (PFA) and embedded in paraffin. Serial coronal sections of 10 μm thickness were cut and hybridized with the DIG-labeled galr1 or galr2 probe or the same DIG-labeled gal probe used for Northern blot analysis. Hybridization signals were visualized by using alkaline phosphatase-conjugated anti-DIG antibody and 5-bromo-4-chloro-3-indolyl phosphate/nitro blue tetrazolium (BCIP/NBT) substrate (Roche Diagnostics). Color development was allowed to proceed for more than 5 hr, or was stopped after 15 min (for quantification of gal expression in males that were castrated and treated with sex steroids) or 1 hr (for quantification of gal expression in females that were ovariectomized and treated with sex steroids) to avoid saturation. All sections in each comparison were processed simultaneously under the same conditions. For galr1, for which hybridization signals were detected throughout the brain and thus the specificity of the staining was somewhat uncertain, in situ hybridization was also performed using a sense probe under conditions identical to those used for the antisense probe. No signal was obtained by the sense probe, confirming that the signals obtained by the antisense probe represented specific staining.
To obtain quantitative data, the number of gal-expressing neurons in each brain nucleus was counted manually. […] In this case, the total number of the neurons in the nuclei was counted. Only intensively labeled neurons with a clearly defined cell body were counted to reduce, if not eliminate, the likelihood of double counting of the neurons split between sections. […]

[2] = test system: gal expression in the whole brain; experiment: Whole-brain gal expression by real-time PCR in gonadectomized, sex steroid-treated fish; settings: castrated adult males, 100 ng/ml by immersion in water for 6 days, normalized to actb, versus castrated vehicle
Source text: as §1, with “In another experiment, females of gal knockout lines with intact ovaries were treated with 100 ng/ml of KT by immersion in water for 10 days and then sampled. The sex steroid concentration used was based on previously reported serum steroid levels in medaka ([Foran et al., 2002]; [Foran et al., 2004]; [Tilton et al., 2003]).” left out
In cases where there were fewer than seven data points per experimental group, individual data points were plotted with the mean ± standard error of the mean (SEM); in cases where there were seven or more data points per experimental group, data were plotted as box and whisker plots by the Tukey method for clarity. In real-time PCR analysis, the expression level of gal (normalized to that of actb) in female whole brain was arbitrarily set to 1, and the relative difference was calculated in each data set to facilitate comparisons among data sets.

adult female medaka = experiment: Aggressive behavior test of KT-treated females; settings: 100 ng/ml KT by immersion for 10 days, main effect of androgen treatment
Source text: For both male and female fish, the gonad was removed under tricaine methane sulfonate anesthesia (0.02%) (Sigma-Aldrich, St. Louis, MO) through a small incision made in the ventrolateral abdominal wall. Immediately after removal of the gonad, the incision was sutured with nylon thread. Sham-operated fish received the same surgical treatment as gonadectomized fish, except for removal of the gonad. After a recovery period of 3 days in saline (0.9% (w/v) NaCl), gonadectomized fish were immersed in water containing 100 ng/ml of KT (Cosmo Bio, Tokyo, Japan) or E2 (Fujifilm Wako Pure Chemical Corporation), or vehicle (ethanol) alone for 6 days and then sampled. […]
All behavioral procedures were conducted in 2-l rectangular tanks contained within a large recirculating water system with a constant influx of dechlorinated tap water. […] The partitions were then removed, and the fish were allowed to interact for 20 min while their behavior was recorded as described above. […]
In each test, wild-type, heterozygous, and homozygous siblings reared under the same conditions were used as the comparison group. The total number of each aggressive act (chase, fin display, circle, strike, and bite) performed by the four fish in the tank was counted manually from the video recordings. In addition, the total number of chases by the four fish in the tank was calculated for each 5 min interval during the test period. […]

Row | Compound | number of gal-expressing neurons in aPMp/pPPa ([1]; castrated adult males) | ovariectomy-induced increase in the number of gal-expressing neurons in pPMp, effect of steroid treatment [1] | level of brain gal expression reduced by castration, effect of steroid treatment [2] | number of bites (adult female medaka; adult females of gal knockout lines Δ2 and Δ10, 20 min test) | number of chases (adult female medaka; adult females of gal knockout lines Δ2 and Δ10 with intact ovaries, four fish per tank, 20 min, n = 6 per group) | number of gal-expressing neurons in pPMp reduced by castration, effect of steroid treatment ([1]; castrated adult males)
1 | C[C@]12CC[C@@H]3c4ccc(O)cc4CC[C@H]3[C@@H]1CC[C@@H]2O [E2, estradiol-17β] | increased | significantly attenuated | – | – | – | –
2 | C[C@]12CC(=O)[C@H]3[C@@H](CCC4=CC(=O)CC[C@@]43C)[C@@H]1CC[C@@H]2O [KT, 11-ketotestosterone] | – | further enhanced | restored by treatment with KT | significantly increased | significantly increased | restored by KT treatment
